| Compound | melting point |
| --- | --- |
| COP(=O)(OC)C(c1ccc(F)cc1)(c1ccc(F)cc1)c1ccc(F)cc1 | 131.6 °C |
| COP(=O)(OC)C(c1ccc(F)cc1)(c1ccccc1F)c1ccccc1Cl (centres unmarked) | 131.5 to 132.5 °C |
| COP(=O)(OC)C(c1ccc(F)cc1)(c1ccc(F)cc1)c1ccc(Cl)cc1 | 136 to 137 °C |
| COP(=O)(OC)C(c1ccc(F)cc1)(c1ccc(F)cc1)c1ccccc1F | 136.6 °C |
| Fc1ccc(C(OP2OCCO2)(c2ccc(F)cc2)c2ccccc2F)cc1 | 163 to 164 °C |
| Fc1ccc(C(OP2OCCO2)(c2ccc(F)cc2)c2ccc(F)cc2)cc1 | 195 to 196 °C |
| O=[N+]([O-])c1ccc(OC(c2ccc(F)cc2)(c2ccc(F)cc2)c2nccs2)cc1C(F)(F)F [Compound 1, 2-[Bis-(4-fluoro-phenyl)-(4-nitro-3-trifluoromethyl-phenoxy)-methyl]-thiazole] | 88.6 to 89.5 °C |
| C=CCC(C#N)(c1ccc(F)cc1)c1ccccc1F (centres unmarked) [Compound 4, 2-(2-Fluoro-phenyl)-2-(4-fluoro-phenyl)-pent-4-enenitrile] | 215 to 219 °C |
| CC(C)C(C#N)(c1ccc(F)cc1)c1ccc(F)cc1 [Compound 6, 2,2-Bis-(4-fluoro-phenyl)-3-methyl-butyronitrile] | 142.3 to 147 °C |
| N#CC(c1ccc(F)cc1)(c1ccc(F)cc1)C(c1ccccc1)c1ccccc1 [Compound 12, 2,2-Bis-(4-fluoro-phenyl)-3,3-diphenyl-propionitrile] | 208 to 212.5 °C |
| N#CC(c1ccc(F)cc1)(c1ccccc1F)C(c1ccccc1)c1ccccc1 (centres unmarked) [Compound 13, 2-(2-Fluoro-phenyl)-2-(4-fluoro-phenyl)-3,3-diphenyl-propionitrile] | 210 to 215.3 °C |
| CC(=O)C(C#N)(c1ccc(F)cc1)c1ccc(F)cc1 [Compound 18, 2,2-Bis-(4-fluoro-phenyl)-3-oxo-butyronitrile] | < 50 °C |
| COC(=O)C(C#N)(c1ccc(F)cc1)c1ccccc1F (centres unmarked) [Compound 22, Cyano-(4-fluoro-phenyl)-(2-fluoro-phenyl)-acetic acid methyl ester] | 104 to 105 °C |
| N#CCC(C#N)(c1ccc(F)cc1)c1ccc(F)cc1 [Compound 24, 2,2-Bis-(4-fluoro-phenyl)-succinonitrile] | 93 to 94 °C |
| CCOC(=O)C(C(=O)OCC)C(C#N)(c1ccc(F)cc1)c1ccc(F)cc1 [Compound 27, 2-[Cyano-bis-(4-fluoro-phenyl)-methyl]-malonic acid diethyl ester] | 117 to 119 °C |

Results, then the molecule that gave them:

| melting point | Compound |
| --- | --- |
| 135.5 to 140.5 °C | Cn1ccnc1SC(c1ccc(F)cc1)(c1ccc(F)cc1)c1ccc(F)cc1 [Compound 5-11, 1-Methyl-2-[tris-(4-fluorophenyl)-methylsulfanyl]-1H-imidazole] |
| 147.7 to 151.8 °C | [O-][n+]1ccccc1SC(c1ccc(F)cc1)(c1ccc(F)cc1)c1ccc(F)cc1 [Compound 5-13, 2-[Tris-(4-fluorophenyl)-methylsulfanyl]-pyridine-N-oxide] |
| 122 to 123 °C | CCN(CC)C(=O)CSC(c1ccc(F)cc1)(c1ccc(F)cc1)c1ccccc1F [Compound 5-14, 2-[Bis-(4-fluoro-phenyl)-(2-fluoro-phenyl)-methylsulfanyl]-N,N-diethyl-acetamide] |
| 120 to 121 °C | CN(C(=O)CSC(c1ccc(F)cc1)(c1ccc(F)cc1)c1ccccc1F)c1ccccc1 [Compound 5-15, 2-[Bis-(4-fluoro-phenyl)-(2-fluoro-phenyl)-methylsulfanyl]-N-methyl-N-phenyl-acetamide] |
| 128 to 129 °C | O=C(CSC(c1ccc(F)cc1)(c1ccc(F)cc1)c1ccccc1F)N1CCCCC1 [Compound 5-16, 2-[Bis-(4-fluoro-phenyl)-(2-fluoro-phenyl)-methylsulfanyl]-1-piperidin-1-yl-ethanone] |
| 119 to 120 °C | NC(=O)CSC(c1ccc(F)cc1)(c1ccc(F)cc1)c1ccccc1F [Compound 5-17, 2-[Bis-(4-fluoro-phenyl)-(2-fluoro-phenyl)-methylsulfanyl]-acetamide] |
| 133 to 134 °C | CC(SC(c1ccc(F)cc1)(c1ccc(F)cc1)c1ccccc1F)C(N)=O (centres unmarked) [Compound 5-18, 2-[Bis-(4-fluoro-phenyl)-(2-fluoro-phenyl)-methylsulfanyl]-propionamide] |
| 111 to 112 °C | N#CCSC(c1ccc(F)cc1)(c1ccc(F)cc1)c1ccccc1F [Compound 5-19, [Bis-(4-fluoro-phenyl)-(2-fluoro-phenyl)-methylsulfanyl]-acetonitrile] |
| 112 to 113 °C | O=C(O)CSC(c1ccc(F)cc1)(c1ccc(F)cc1)c1ccccc1F [Compound 5-20, [(2-Fluoro-phenyl)-bis-(4-fluoro-phenyl)-methylsulfanyl]-acetic acid] |
| 140.6 to 145.3 °C | CS(=O)(=O)C(c1ccc(F)cc1)(c1ccc(F)cc1)c1ccc(F)cc1 [Compound 7-1, Methyl tris(4-fluorophenyl)methyl sulfone] |
| 157.4 to 160.6 °C | O=S(=O)(c1ccccc1)C(c1ccc(F)cc1)(c1ccc(F)cc1)c1ccc(F)cc1 [Compound 7-7, Phenyl tris(4-fluorophenyl)methyl sulfone] |
| 147 to 149 °C | CS(=O)(=O)C(c1ccc(F)cc1)(c1ccc(F)cc1)c1ccccc1F [Compound 7-14, Methanesulphonyl-2-fluorophenyl-bis-(4-fluoro-phenyl) methane] |
| 228 to 230 °C | O=P(O)(O)C(c1ccc(F)cc1)(c1ccc(F)cc1)c1ccccc1F [Compound 10-14, [Bis-(4-fluoro-phenyl)-(2-fluoro-phenyl)-methyl]-phosphonic acid] |
| 240 °C (dec.) | Cc1ccc(C(c2ccc(F)cc2)(c2ccc(F)cc2)P(=O)(O)O)cc1 [Compound 10-15, [Bis-(4-fluoro-phenyl)-p-tolyl-methyl]-phosphonic acid] |

— patent US7429618B2, “Potassium channel modulators” (Neurosearch A/S, priority 2002, dated 2008)
